Measurements: US4711877A, “6-pen-vasopressin compounds” (SmithKline Beckman Corporation, priority 1985, dated 1987)
Positions of bridges follow the written chain, without caps; N, C: chain ends. Non-standard residues stand in square brackets, D forms with d. Residues, ends and D or L forms follow the SMILES beside them. Pen = CC(C)(S)[C@H](N)C(=O)O; Mpa = O=C(O)CCS

Key:
[1] = biological target: T1, vasopressin receptor sites (Rattus norvegicus, UniProt P30560); test: Binding activity in rat liver tissue (KB), protocol of Stassen et al.
T1 construct: from tissue; host or cells: rat liver tissue
Source text: (§1) The binding activity in hog and rat liver tissue, as well as the antagonistic activity in the hydropenic rat, of the compounds according to this invention is illustrated by the following results which were obtained using testing protocols which are described in the literature [F. Stassen, J. Pharmacology and Experimental Therapeutics, 223 50 (1982)]: […]

[2] = biological target: T2, vasopressin receptor sites (Sus scrofa, UniProt P32307); test: Binding activity in hog tissue (KB), protocol of Stassen et al.
T2 construct: from tissue; renal medulla by own knowledge of the cited protocol
Source text: as §1

T2 sequence (P32307 whole entry): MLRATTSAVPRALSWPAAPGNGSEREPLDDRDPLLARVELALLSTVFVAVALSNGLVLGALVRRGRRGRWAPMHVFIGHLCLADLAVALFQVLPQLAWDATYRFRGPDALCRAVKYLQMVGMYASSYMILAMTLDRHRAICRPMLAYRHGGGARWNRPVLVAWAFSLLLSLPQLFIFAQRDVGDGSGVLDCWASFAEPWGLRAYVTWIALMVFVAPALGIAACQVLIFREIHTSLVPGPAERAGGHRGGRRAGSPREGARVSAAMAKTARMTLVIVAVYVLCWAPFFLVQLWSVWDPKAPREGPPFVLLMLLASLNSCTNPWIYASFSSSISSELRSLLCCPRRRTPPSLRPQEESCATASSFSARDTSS
T1 sequence (P30560 whole entry): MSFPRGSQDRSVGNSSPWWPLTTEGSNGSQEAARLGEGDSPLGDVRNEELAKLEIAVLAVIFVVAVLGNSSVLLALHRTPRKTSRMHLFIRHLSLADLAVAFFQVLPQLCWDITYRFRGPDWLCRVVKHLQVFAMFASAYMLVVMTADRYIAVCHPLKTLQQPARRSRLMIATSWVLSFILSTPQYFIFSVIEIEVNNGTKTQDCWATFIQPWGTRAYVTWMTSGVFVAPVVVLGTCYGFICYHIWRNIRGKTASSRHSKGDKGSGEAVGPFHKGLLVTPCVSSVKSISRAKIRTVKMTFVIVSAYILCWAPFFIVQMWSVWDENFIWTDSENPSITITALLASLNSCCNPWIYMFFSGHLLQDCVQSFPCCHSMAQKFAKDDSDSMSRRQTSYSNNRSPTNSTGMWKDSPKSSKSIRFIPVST

Row | SMILES | Kb [1] [nM] | Kb [2] [nM]
1 | CCOc1ccc(C[C@H]2NC(=O)CCSSC(C)(C)[C@@H](C(=O)N3CCC[C@H]3C(=O)N[C@@H](CCCNC(=N)N)C(=O)NCC(N)=O)NC(=O)[C@H](CC(N)=O)NC(=O)[C@H](C(C)C)NC(=O)[C@H](Cc3ccccc3)NC2=O)cc1 [Compound A, Mpr--D-Tyr(Et)--Phe--Val--Asn--Pen--Pro--Arg--Gly(NH2)] ([Mpa][dY](Et)FVN[Pen]PRG-NH2; disulfide 1-6) | 110 | 190
2 | CCOc1ccc(C[C@H]2NC(=O)CCSSC[C@@H](C(=O)N3CCC[C@H]3C(=O)N[C@@H](CCCNC(=N)N)C(=O)NCC(N)=O)NC(=O)[C@H](CC(N)=O)NC(=O)[C@H](C(C)C)NC(=O)[C@H](Cc3ccccc3)NC2=O)cc1 [Compound B, Mpr--D-Tyr(Et)--Phe--Val--Asn--Cys--Pro--Arg--Gly(NH2), reference compound] ([Mpa][dY](Et)FVNCPRG-NH2; disulfide 1-6) |  | 9900
